{"source": "patent US7276494B2", "about": "“Photosensitisers” (Photopharmica Limited, priority 2000, dated 2007)", "key": {"LSBD1 tumour": {"system": "LSBD1 tumour", "test": "PDT-induced LSBD1 tumour growth delay in BDIX rats", "type": "in vivo", "conditions": "400 J", "description": "Data are shown in two animals models, the rat and the mouse. […] Growth delay measures the additional time taken for a treated tumour to grow to a given size, compared with an untreated tumour. Zero growth delay signifies no effect and growth delays of 5 days or longer imply substantial PDT activity.\n(1) PDT-Induced LSBD1 Tumour Growth Delay in BDIX Rats\nTumour growth delay is calculated as the number of days for treated tumour to reach a mean diameter of 15 mm minus the number of days for a control tumour to reach a mean diameter of 15 mm. Data for various compounds are shown in Table 2, which also indicates the times (drug-light interval) at which effects occurred."}, "[1]": {"system": "RIF-1 (murine fibrosarcoma) cells", "test": "Phototoxicity towards cells in culture (photocytotoxic activity in killing RIF-1 cells)", "type": "cell-based", "conditions": "concentration causing 50% cell death in two hours of illumination", "excerpt": "[Phot]=Zinc Phthalocyanine; n=4; LD50 is the concentration of drug needed to cause 50% cell death in two hours of illumination"}, "red blood cells": {"system": "red blood cells", "conditions": "J. Photochem. Photobiol B: Biology., 45 (1998) 28-35; cited from earlier work"}, "RIF-1 tumour cells": {"system": "RIF-1 tumour cells", "test": "In vitro photodynamic activity, RIF-1 tumour cells, cell kill by MTT assay after 665 nm laser radiation", "type": "cell-based, murine", "conditions": "for Light: LD50 (average) / Dark: cell kill: RIF-1 tumour cells, MTT assay; for Light: LD50 (average): 665 nm laser radiation for a fixed time; for Dark: cell kill: no light", "description": "In vitro photodynamic activity for zinc phthalocyanine-2-(N-2-carboxyethyl)sulphonamide compared with Zinc phthalocyanine tetrasulphonic acid. The sensitiser was tested by incubation with RIF-1 tumour cells at various dose rates, and measuring the cell kill by MTT assay after exposure to 665 nm laser radiation for a fixed time. The results were compared with zinc phthalocyanine tetrasulphonic acid as a control, and were expressed as the LD50 value for the sensitisers."}, "[2]": {"conditions": "drug-light interval 24 h, 5 mg/kg, 680 nm"}, "[3]": {"conditions": "drug-light interval 48 h, 5 mg/kg, 680 nm"}, "[4]": {"conditions": "drug-light interval 4 h, 10 mg/kg, 680 nm phthalocyanines / 630 nm PHP"}, "[5]": {"conditions": "drug-light interval 24 h, 10 mg/kg, 680 nm phthalocyanines / 630 nm PHP"}, "[6]": {"conditions": "drug-light interval 48 h, 10 mg/kg, 680 nm phthalocyanines / 630 nm PHP"}}}
{"substance": "Tetrasulphonylaminoglycine zinc (II) phthalocyanine [TSZnPc-glycine]", "values": [{"measurement": "Tumour growth delay", "setting": "LSBD1 tumour; drug-light interval 4 h, 5 mg/kg, 680 nm", "value": "8.5 ± 3.5", "unit": "days"}, {"measurement": "Tumour growth delay", "setting": "LSBD1 tumour; [2]", "value": "4.7 ± 0.75", "unit": "days"}, {"measurement": "Tumour growth delay", "setting": "LSBD1 tumour; [3]", "value": 4.5, "unit": "days"}, {"measurement": "2h LD50 (mean ± SD, n 3)", "setting": "[1]", "value": "142 ± 37", "unit": "µM"}, {"measurement": "ability to effect haemolysis of red blood cells", "setting": "red blood cells", "value": "relatively poor"}]}
{"substance": "tetrasulphonylamino butyric acid zinc (II) phthalocyanine [TSZnPc-aminobutyric acid]", "values": [{"measurement": "Tumour growth delay", "setting": "LSBD1 tumour; [4]", "value": "4.3 ± 1.44", "unit": "days"}, {"measurement": "Tumour growth delay", "setting": "LSBD1 tumour; [5]", "value": "7.83 ± 3.33", "unit": "days"}, {"measurement": "Tumour growth delay", "setting": "LSBD1 tumour; [6]", "value": "1.67 ± 1.53", "unit": "days"}, {"measurement": "2h LD50 (mean ± SD, n 3)", "setting": "[1]", "value": "90 ± 30", "unit": "µM"}]}
{"substance": "tetrasulphonylamino caproic acid zinc (II) phthalocyanine [TSZnPc-aminocaproic acid]", "values": [{"measurement": "2h LD50 (mean ± SD, n 3)", "setting": "[1]", "value": "104 ± 14", "unit": "µM"}]}
{"substance": "tetrasulphonylamino valeric acid zinc (II) phthalocyanine [TSZnPc-aminovaleric acid]", "values": [{"measurement": "2h LD50 (mean ± SD, n 3)", "setting": "[1]", "value": "125 ± 13", "unit": "µM"}]}
{"substance": "tetrasulphonylamino β-alanine zinc (II) phthalocyanine [TSZnPc-β-alanine]", "values": [{"measurement": "Tumour growth delay", "setting": "LSBD1 tumour; drug-light interval 2 h, 10 mg/kg, 680 nm", "value": "6 ± 0.62", "unit": "days"}, {"measurement": "Tumour growth delay", "setting": "LSBD1 tumour; [4]", "value": "10 ± 2.62", "unit": "days"}, {"measurement": "Tumour growth delay", "setting": "LSBD1 tumour; drug-light interval 6 h, 10 mg/kg, 680 nm", "value": "5.25 ± 1.59", "unit": "days"}, {"measurement": "Tumour growth delay", "setting": "LSBD1 tumour; [2]", "value": 2, "unit": "days"}, {"measurement": "Tumour growth delay", "setting": "LSBD1 tumour; [3]", "value": 2, "unit": "days"}, {"measurement": "2h LD50 (mean ± SD, n 3)", "setting": "[1]", "value": "109 ± 31", "unit": "µM"}]}
{"substance": "tetrasulphonylamino-α-alanine zinc (II) phthalocyanine [TSZnPc-α-alanine]", "values": [{"measurement": "Tumour growth delay", "setting": "LSBD1 tumour; [4]", "value": "4.33 ± 0.83", "unit": "days"}, {"measurement": "Tumour growth delay", "setting": "LSBD1 tumour; [5]", "value": "6.67 ± 1.09", "unit": "days"}, {"measurement": "Tumour growth delay", "setting": "LSBD1 tumour; [6]", "value": "3.33 ± 0.73", "unit": "days"}, {"measurement": "2h LD50 (mean ± SD, n 3)", "setting": "[1]", "value": "109 ± 39", "unit": "µM"}]}
{"substance": "zinc phthalocyanine tetrasulphonic acid [reference compound]", "values": [{"measurement": "Light: LD50 (average)", "setting": "RIF-1 tumour cells", "value": "> 10", "unit": "µM"}, {"measurement": "Dark: cell kill", "setting": "RIF-1 tumour cells", "value": "no cell kill detectable"}]}
{"substance": "zinc phthalocyanine-2-(N-2-carboxyethyl)sulphonamide", "values": [{"measurement": "Light: LD50 (average)", "setting": "RIF-1 tumour cells", "value": 0.2, "unit": "µM"}, {"measurement": "Dark: cell kill", "setting": "RIF-1 tumour cells", "value": "no cell kill detectable"}, {"measurement": "times more PDT active than the tetrasulphonic acid (in vitro)", "setting": "RIF-1 tumour cells; ratio of light LD50 values, RIF-1 cells", "value": "at least 50 times"}]}
